Test results published in ChEMBL document CHEMBL1201862, “PubChem BioAssay data set” (2004).
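Cells were grown in 96-well plates and exposed to each compound for 48 hours at five concentrations; endpoints were interpolated linearly between bracketing concentrations, or set to the highest concentration if not reached. The concentration for 50% growth inhibition is given as GI50.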 Active and inactive are the calls of the source. No stated cut-off is given here; in the data, active = GI50 up to about 1.1 µM and inactive = higher.

Experiments:
Assay in all cases: DTP human tumour cell line panel, 48 h
HOP-62 = system: HOP-62
KM12 = system: KM12
RPMI-8226 = system: RPMI-8226
RXF 393 = system: RXF 393
SR = system: SR
IGROV-1 = system: IGROV-1
MDA-MB-231 = system: MDA-MB-231
EKVX = system: EKVX
SNB-75 = system: SNB-75
Malme-3M = system: Malme-3M
T47D = system: T47D
786-0 = system: 786-0
NCI-H23 = system: NCI-H23
MCF7 = system: MCF7
HCT-15 = system: HCT-15
MOLT-4 = system: MOLT-4
SK-MEL-28 = system: SK-MEL-28
OVCAR-8 = system: OVCAR-8
DU-145 = system: DU-145
SW-620 = system: SW-620
A549 = system: A549
CCRF-CEM = system: CCRF-CEM
UACC-62 = system: UACC-62
SK-OV-3 = system: SK-OV-3
TK-10 = system: TK-10
PC-3 = system: PC-3
SF-295 = system: SF-295
HT-29 = system: HT-29
SF-268 = system: SF-268
HCC 2998 = system: HCC 2998
UACC-257 = system: UACC-257
SK-MEL-5 = system: SK-MEL-5
LOX IMVI = system: LOX IMVI
MDA-N = system: MDA-N
M14 = system: M14
K562 = system: K562
COLO 205 = system: COLO 205
SN12C = system: SN12C
CAKI-1 = system: CAKI-1
OVCAR-3 = system: OVCAR-3
OVCAR-4 = system: OVCAR-4
MDA-MB-435 = system: MDA-MB-435
SK-MEL-2 = system: SK-MEL-2
SNB-19 = system: SNB-19
NCI/ADR-RES = system: NCI/ADR-RES
U-251 = system: U-251
A498 = system: A498
SF-539 = system: SF-539
NCI-H460 = system: NCI-H460
ACHN = system: ACHN
HCT-116 = system: HCT-116
HOP-92 = system: HOP-92
UO-31 = system: UO-31
NCI-H226 = system: NCI-H226
HL-60 = system: HL-60
OVCAR-5 = system: OVCAR-5

Structure (SMILES): Cc1c(CCCl)c(N=P(c2ccccc2)(c2ccccc2)c2ccccc2)n2c(nc3ccccc32)c1C#N
- GI50 (HOP-62): > 10 µM (inactive)
- GI50 (KM12): > 10 µM (inactive)
- GI50 (RPMI-8226): > 10 µM (inactive)
- GI50 (RXF 393): > 10 µM (inactive)
- GI50 (SR): > 10 µM (inactive)
- GI50 (IGROV-1): > 10 µM (inactive)
- GI50 (MDA-MB-231): > 10 µM (inactive)
- GI50 (EKVX): > 10 µM (inactive)
- GI50 (SNB-75): > 10 µM (inactive)
- GI50 (Malme-3M): > 10 µM (inactive)
- GI50 (T47D): > 10 µM (inactive)
- GI50 (786-0): > 10 µM (inactive)
- GI50 (NCI-H23): > 10 µM (inactive)
- GI50 (MCF7): > 10 µM (inactive)
- GI50 (HCT-15): > 10 µM
- GI50 (MOLT-4): > 10 µM (inactive)
- GI50 (SK-MEL-28): > 10 µM (inactive)
- GI50 (OVCAR-8): > 10 µM (inactive)
- GI50 (DU-145): > 10 µM (inactive)
- GI50 (SW-620): > 10 µM (inactive)
- GI50 (A549): > 10 µM (inactive)
- GI50 (CCRF-CEM): 4.67 µM (inactive)
- GI50 (UACC-62): > 10 µM (inactive)
- GI50 (SK-OV-3): > 10 µM (inactive)
- GI50 (TK-10): > 10 µM (inactive)
- GI50 (PC-3): > 10 µM (inactive)
- GI50 (SF-295): > 10 µM (inactive)
- GI50 (HT-29): 5.79 µM (inactive)
- GI50 (SF-268): > 10 µM (inactive)
- GI50 (HCC 2998): > 10 µM (inactive)
- GI50 (UACC-257): > 10 µM (inactive)
- GI50 (SK-MEL-5): > 10 µM (inactive)
- GI50 (LOX IMVI): > 10 µM (inactive)
- GI50 (MDA-N): > 10 µM (inactive)
- GI50 (M14): > 10 µM (inactive)
- GI50 (K562): > 10 µM (inactive)
- GI50 (COLO 205): > 10 µM (inactive)
- GI50 (SN12C): > 10 µM (inactive)
- GI50 (CAKI-1): > 10 µM (inactive)

Structure (SMILES): CC(C)[Si](OC12CCC(CC1O)CC2C(=O)O)(C(C)C)C(C)C (centres undefined)
- GI50 (HOP-62): 14.4 µM (inactive)
- GI50 (KM12): 12.4 µM (inactive)
- GI50 (RPMI-8226): 10.1 µM (inactive)
- GI50 (SR): 23.2 µM (inactive)
- GI50 (MDA-MB-231): 14.7 µM (inactive)
- GI50 (SNB-75): 6.1 µM (inactive)
- GI50 (OVCAR-3): 14.8 µM (inactive)
- GI50 (OVCAR-4): 12.6 µM (inactive)
- GI50 (T47D): 13.9 µM (inactive)
- GI50 (MDA-MB-435): 14.5 µM (inactive)
- GI50 (786-0): 11 µM (inactive)
- GI50 (NCI-H23): 15.5 µM (inactive)
- GI50 (MCF7): 11.3 µM (inactive)
- GI50 (SK-MEL-2): 14.6 µM (inactive)
- GI50 (SNB-19): 15.6 µM (inactive)
- GI50 (HCT-15): 12.4 µM
- GI50 (MOLT-4): 13.2 µM (inactive)
- GI50 (NCI/ADR-RES): 13.2 µM (inactive)
- GI50 (SK-MEL-28): 11.2 µM (inactive)
- GI50 (OVCAR-8): 16.1 µM (inactive)
- GI50 (DU-145): 14.2 µM (inactive)
- GI50 (U-251): 14.6 µM (inactive)
- GI50 (SW-620): 14.9 µM (inactive)
- GI50 (A549): 14.5 µM (inactive)
- GI50 (A498): 15.3 µM (inactive)
- GI50 (SF-539): 27.4 µM (inactive)
- GI50 (CCRF-CEM): 13.1 µM (inactive)
- GI50 (NCI-H460): 7.76 µM (inactive)
- GI50 (ACHN): 15.7 µM (inactive)
- GI50 (UACC-62): 14 µM (inactive)
- GI50 (SK-OV-3): 13.9 µM (inactive)
- GI50 (TK-10): 3.88 µM (inactive)
- GI50 (PC-3): 12.5 µM (inactive)
- GI50 (SF-295): 15.7 µM (inactive)
- GI50 (HT-29): 11.7 µM (inactive)
- GI50 (HCT-116): 10.7 µM (inactive)
- GI50 (SF-268): 12.7 µM (inactive)
- GI50 (UACC-257): 16.7 µM (inactive)
- GI50 (SK-MEL-5): 18.9 µM (inactive)
- GI50 (HOP-92): 7.31 µM (inactive)
- GI50 (MDA-N): 17 µM (inactive)
- GI50 (M14): 15.8 µM (inactive)
- GI50 (K562): 31.6 µM (inactive)
- GI50 (UO-31): 13.2 µM (inactive)
- GI50 (NCI-H226): 12 µM (inactive)
- GI50 (COLO 205): 21.7 µM (inactive)
- GI50 (HL-60): 0.459 µM (active)
- GI50 (SN12C): 21.7 µM (inactive)
- GI50 (CAKI-1): 19.1 µM (inactive)
- GI50 (OVCAR-5): 14 µM (inactive)
